Data set [1] deals with T1, Corticotropin-releasing factor receptor 1 (Homo sapiens, UniProt P34998).
T1 sequence (P34998 whole entry): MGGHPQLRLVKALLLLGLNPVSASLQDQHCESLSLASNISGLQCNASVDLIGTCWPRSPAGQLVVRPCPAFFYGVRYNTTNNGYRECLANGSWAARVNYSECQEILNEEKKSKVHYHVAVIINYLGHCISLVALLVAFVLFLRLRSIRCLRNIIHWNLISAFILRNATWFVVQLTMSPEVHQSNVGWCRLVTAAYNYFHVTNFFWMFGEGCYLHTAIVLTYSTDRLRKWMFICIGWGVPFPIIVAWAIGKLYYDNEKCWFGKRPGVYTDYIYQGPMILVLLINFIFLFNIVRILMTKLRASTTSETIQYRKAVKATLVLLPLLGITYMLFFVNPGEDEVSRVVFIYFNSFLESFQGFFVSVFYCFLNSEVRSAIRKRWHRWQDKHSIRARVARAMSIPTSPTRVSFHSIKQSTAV
The experiment in a line: Displacement of ovine [125I]CRF from human CRF1 receptor expressed in CHO cells. In kind it is cell-based.

In data set [2] the test system is Mus musculus. The experiment in a line: Ex vivo displacement of [125I]-sauvagine from CRF1 receptor in mouse frontal cortex at 30 mg/kg, po administered 60 mins before mouse decapitation and measured after 2 hrs by gamma scintillation counting. In kind it is functional. (Loss of bound radioactivity is the signal in a displacement assay; it reports binding, not function.)

The subject of data set [3] is Mus musculus. The experiment in a line: Ex vivo displacement of [125I]-sauvagine from CRF1 receptor in mouse Olfactory bulb at 30 mg/kg, po administered 60 mins before mouse decapitation and measured after 2 hrs by gamma scintillation counting. The class given is functional.
For data set [4], the system named is Mus musculus. The data set is described as follows: Ex vivo displacement of [125I]-sauvagine from CRF1 receptor in mouse pituitary gland at 30 mg/kg, po administered 60 mins before mouse decapitation and measured after 2 hrs by gamma scintillation counting. The class given is functional.
The nature of data set [5]: Ratio of drug uptake in brain to plasma of mouse at 30 mg/kg, po. In kind it is ADME, organism-based. More on the design: dose 30 mg/kg, route oral. Conditions: read-out: BBB.

The term IC50 denotes the midpoint of a concentration-inhibition curve. A higher IC50 goes with weaker potency in that assay. `CCN(CC)c1nc2c(c(-c3c(C)cc(C)cc3C)cn2C)c(=O)n1C` returned a 50% inhibitory concentration (IC50) in data set [1] of 7700 nM. For orientation: inhibition in vivo means how much of the control response was suppressed. A lower inhibition in vivo goes with a response near the control. With `CCCN(CCC)c1nc2c(c(-c3c(C)cc(C)cc3C)cn2C)c(=O)n1C`, the IC50 in data set [1] was found to be 120 nM. In addition, the inhibition in vivo at 30 mg/kg in the data set on Mus musculus [2] is 35%; with Mus musculus [3] it was 22%; in the data set with Mus musculus [4], 53%. For the same compound, the Kp in data set [5] was 0.42. `CCCCN(CCCC)c1nc2c(c(-c3c(C)cc(C)cc3C)cn2C)c(=O)n1C` registered an IC50 in data set [1] of 970 nM. `Cc1cc(C)c(-c2cn(C)c3nc(N(CC4CC4)CC4CC4)n(C)c(=O)c23)c(C)c1` gave a half-inhibitory concentration (IC50) in data set [1] of 140 nM. `Cc1cc(C)c(-c2cn(C)c3nc(N4CCCCC4)n(C)c(=O)c23)c(C)c1` displayed an IC50 in data set [1] of 3800 nM. This IC50 is about 27-fold higher than that of the compound before. On the same count and under the same terms, the same measure for `CCCN(CCC)c1nc2c(c(-c3c(C)cc(C)cc3C)c(C)n2C)c(=O)n1C`: 1100 nM; for `CCCN(CCC)c1nc2c(c(-c3ccc(C)cc3C)c(C)n2C)c(=O)n1C`: 3300 nM. In the case of `CCCN(CCC)c1nc2c(c(-c3ccc(C)cc3C)cn2C)c(=O)n1C`, the half-inhibitory concentration (IC50) in data set [1] came to 1600 nM.

Compound `CCCN(CCC)c1nc2c(c(-c3c(OC)cc(OC)cc3OC)cn2C)c(=O)n1C` showed an IC50 in data set [1] of 3100 nM.

`CCCN(CCC)c1nc2c(c(-c3ccc(OC)cc3OC)cn2C)c(=O)n1C` came in with an IC50 in data set [1] of 3000 nM. Same read-out and setting: the same measure for `CCCN(CCC)c1nc2c(c(-c3ccc(C(F)(F)F)cc3C(F)(F)F)cn2C)c(=O)n1C`: 3000 nM; for `CCC(CC)Oc1cc(C)nc(Oc2c(C)cc(C)cc2C)c1C`: 92 nM; for `CCCCN(CC)c1nc(C)nc2c1c(C)cn2-c1c(C)cc(C)cc1C` [CP-154526]: 11 nM.
